Measured values: PMC10841072 (European journal of medicinal chemistry, 2023)
One block for each compound: values may come before it.

How the values were obtained:
[1] = biological target: human D3 expressed in HEK cells (Homo sapiens, UniProt P35462); test: Radioligand binding assay with [125I]IABN, D3R; conditions: for D2R/D3R selectivity, (Ki for D2R)/(Ki for D3R): ratio of Ki values
[2] = biological target: human D3 receptor over-expressed in CHO-K1 cells (Homo sapiens, UniProt P35462); test: PathHunter β-arrestin recruitment assay, competition with dopamine; assay type: cell-based; conditions: 30 nM (EC80) dopamine, Mean ± SEM, at least three experiments
Chain of human D3 receptor over-expressed in CHO-K1 cells (P35462 whole entry): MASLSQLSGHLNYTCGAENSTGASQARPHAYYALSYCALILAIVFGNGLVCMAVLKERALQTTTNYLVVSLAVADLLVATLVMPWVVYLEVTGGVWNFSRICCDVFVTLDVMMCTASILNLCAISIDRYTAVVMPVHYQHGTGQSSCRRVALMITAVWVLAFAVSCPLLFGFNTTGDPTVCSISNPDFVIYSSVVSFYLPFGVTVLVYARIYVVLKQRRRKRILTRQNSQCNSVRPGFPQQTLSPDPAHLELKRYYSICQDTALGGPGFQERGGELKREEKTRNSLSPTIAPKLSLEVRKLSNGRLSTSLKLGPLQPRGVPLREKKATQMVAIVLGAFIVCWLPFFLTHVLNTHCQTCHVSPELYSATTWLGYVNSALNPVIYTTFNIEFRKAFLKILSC

[3] = biological target: human D2 (long) expressed in HEK cells (Homo sapiens, UniProt P14416); test: Radioligand binding assay with [125I]IABN, D2R
Chain of human D2 (long) expressed in HEK cells (P14416 whole entry): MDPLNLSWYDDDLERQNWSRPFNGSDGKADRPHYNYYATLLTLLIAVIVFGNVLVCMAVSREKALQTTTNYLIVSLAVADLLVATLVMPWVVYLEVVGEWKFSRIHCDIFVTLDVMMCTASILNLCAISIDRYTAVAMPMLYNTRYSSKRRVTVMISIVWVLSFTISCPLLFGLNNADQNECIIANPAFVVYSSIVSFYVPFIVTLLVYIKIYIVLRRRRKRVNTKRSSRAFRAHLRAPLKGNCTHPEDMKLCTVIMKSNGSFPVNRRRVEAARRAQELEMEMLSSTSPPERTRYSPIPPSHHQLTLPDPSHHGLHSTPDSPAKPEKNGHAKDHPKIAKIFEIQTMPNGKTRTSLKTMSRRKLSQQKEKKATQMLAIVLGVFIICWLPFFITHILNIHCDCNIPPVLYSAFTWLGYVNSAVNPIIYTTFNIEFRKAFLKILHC

Chain of human D3 expressed in HEK cells (P35462 whole entry): as the sequence (P35462 whole entry) above

SMILES: C=CCN1C[C@H](OCCN)C[C@H]1CNC(=O)c1cc(CCCF)cc(OC)c1OC [Compound 35a, N-(((2S,4R)-1-allyl-4-(2-aminoethoxy)pyrrolidin-2-yl)methyl)-5-(3-fluoropropyl)-2,3-dimethoxybenzamide]
higher affinity for D3R versus D2R [1]: 11 fold

SMILES: C=CCN1C[C@@H](OCCCN)C[C@H]1CNC(=O)c1cc(CCCF)cc(OC)c1OC [Compound 40, N-(((2S,4S)-1-allyl-4-(3-aminopropoxy)pyrrolidin-2-yl)methyl)-5-(3-fluoropropyl)-2,3-dimethoxybenzamide]
Ki [3]: 0.0169 ± 0.0009 µM

SMILES: C=CCN1C[C@@H](OC(=O)Nc2ccc(-c3ccsc3)cc2)C[C@H]1CNC(=O)c1cc(CCCF)cc(OC)c1OC [Compound 41, (3S,5S)-1-allyl-5-((5-(3-fluoropropyl)-2,3-dimethoxybenzamido)methyl)pyrrolidin-3-yl (4-(thiophen-3-yl)phenyl)carbamate]
D2R/D3R selectivity, (Ki for D2R)/(Ki for D3R) [1]: modest

SMILES: CCN1C[C@H](OC(=O)Nc2ccc(-c3ccsc3)cc2)C[C@H]1CNC(=O)c1cc(CCCF)cc(OC)c1OC [Compound 47, (3R,5S)-1-ethyl-5-((5-(3-fluoropropyl)-2,3-dimethoxybenzamido)methyl)pyrrolidin-3-yl (4-(thiophen-3-yl)phenyl)carbamate]
IC50 in β-arrestin recruitment assay (inhibiting dopamine) [2]: much lower potency

Further lines, results first:

D2R/D3R selectivity, (Ki for D2R)/(Ki for D3R) [1]: higher affinity for D2R versus D3R
SMILES: C=CCN1C[C@H](OC(=O)Nc2ccoc2)C[C@H]1CNC(=O)c1cc(CCCF)cc(OC)c1OC [Compound 37h, (3R,5S)-1-allyl-5-((5-(3-fluoropropyl)-2,3-dimethoxybenzamido)methyl)pyrrolidin-3-yl furan-3-ylcarbamate]

IC50 in β-arrestin recruitment assay (inhibiting dopamine) [2]: much lower potency
SMILES: C=CCN1C[C@H](OC(=O)Nc2ccc(-c3ccccn3)cc2)C[C@H]1CNC(=O)c1cc(CCCF)cc(OC)c1OC [Compound 37k, (3R,5S)-1-allyl-5-((5-(3-fluoropropyl)-2,3-dimethoxybenzamido)methyl)pyrrolidin-3-yl (4-(pyridin-2-yl)phenyl)carbamate]

IC50 in β-arrestin recruitment assay (inhibiting dopamine) [2]: much lower potency
SMILES: C=CCN1C[C@H](OC(=O)Nc2ccc(-c3ccsc3)cc2)C[C@H]1CNC(=O)c1cc(CCCF)cc(OC)c1OC [Compound 37l, (3R,5S)-1-allyl-5-((5-(3-fluoropropyl)-2,3-dimethoxybenzamido)methyl)pyrrolidin-3-yl (4-(thiophen-3-yl)phenyl)carbamate]
